Experimental data taken from patent publication US10897901B2, “Herbicidal composition” (FMC Corporation, priority 2007, dated 2021).

Legend:
Assay type in all cases: in vivo
[1] = test system: Smooth Crabgrass (Digitaria ischaemum); test: Example 1 post-emergent turf plot test, 3 leaf/2 tiller crabgrass
Experimental: (§1) The experimental design used randomized plots with post-emergent treatment and three replications per test trial. The size of each experimental plot was 4 feet by 6 feet. The application of each test composition was performed with pressurized back-pack sprayers, calibrated to spray 200 gallons per acre. Test compositions containing sulfentrazone (DISMISS™ Turf Herbicide), quniclorac, (FACET® 75 DF herbicide) or a mixture of sulfentrazone and quinclorac in a 1:3 ratio, prepared as described above, were diluted with water to provide the appropriate test rate concentrations.
The control of weeds was evaluated in each experimental plot from 7 to 41 days after treatment (DAT) of each test rate. The results, shown as an average of the replications, were compared with results observed in untreated control plots in the same trials.

[2] = test system: Yellow Nutsedge (Cyperus esculentus); test: Example 2 post-emergent turf plot test, nutsedge
Experimental: as §1, with “quinclorac,” for “quniclorac,”, “one to three” for “1:3”
The control of weeds was evaluated in each experimental plot from 1 to 27 days after treatment (DAT) of each test rate. The results, shown as an average of the replications, were compared with results observed in untreated control plots in the same trials.

Kochia (Kochia scoparia) = test: Example 4 post-emergence greenhouse pot test, kochia
Experimental: (§2) Test compositions containing sulfentrazone (75 DF formulation), quniclorac, (DRIVE® 75 DF Herbicide) or mixtures of sulfentrazone and quinclorac at ratios of 1:1 to 1:5, were diluted with water to provide the appropriate test rate concentrations. A nonionic surfactant (0.25%) was added to each test solution. The test weeds include crabgrass (Digitaria sp), Chickweed (Stellaria media), Hemp Sesbania (Sesbania exaltata), Kochia (Kochia scoparia), Ivyleaf Morningglory (Ipomoea hederacea), Redroot Pigweed (Amaranthus retroflexus) and yellow nutsedge (Cyperus esculentusi).
(§3) For post-emergence testing, three disposable 3 inch square pots for each rate of application of each herbicide were filled with a soil, comprised of peat moss, vermiculite, bark ash, pine bark, limestone and a wetting agent, to which 8 to 10 seeds were planted. The pots were placed in a greenhouse and watered daily, thus allowing the seeds to germinate and the foliage to develop for 22 days, 3 months for Kochia.
(§4) Pots designated for treatment were placed on a conveyor belt and the conveyor belt fed under a spray nozzle mounted about ten inches above the foliage. The spray of herbicidal solution was commenced and once stabilized; the pots were passed under the spray at a speed to receive a coverage equivalent of 30 gallons per acre. The application rates are those shown in Table 4 below for the individual herbicidal solutions and the mixture of sulfentrazone and quinclorac. The post-emergence pots were immediately placed in the green-house and not watered until 24 hours after treatment with the test solution. Thereafter they were regularly watered at ground level. The control of weeds was evaluated in each experimental test from 2 to 20 days after treatment (DAT). The results, shown as an average of the replications, were compared with results observed in untreated control pots in the same tests.
(§5) Percent control was determined by a method similar to the 0 to 100 rating system disclosed in “Research Methods in Weed Science,” 2nd ed., B. Truelove, Ed.; Southern Weed Science Society; Auburn University, Auburn, Ala., 1977.

[3] = test system: Redroot Pigweed (Amaranthus retroflexus); test: Example 4 post-emergence greenhouse pot test, pigweed
Experimental: as §2, §3, §4, §5

Q: Which results are given for `Cc1nn(-c2cc(NS(C)(=O)=O)c(Cl)cc2Cl)c(=O)n1C(F)F` [A, N-[2,4-dichloro-5-[4-(difluoromethyl)-4,5-dihydro-3-methyl-5-oxo-1H-1,2,4-triazol-1-yl]phenyl]methanesulfonamide]?
A: Percent Control ([1]; 0.57 lb ai/acre, 7 DAT): 70%; Percent Control ([1]; 0.57 lb ai/acre, 14 DAT): 78%; Percent Control ([1]; 0.57 lb ai/acre, 21 DAT): 86%; Percent Control ([1]; 0.57 lb ai/acre, 28 DAT): 75%; Percent Control ([1]; 0.57 lb ai/acre, 41 DAT): 71%; Percent Control ([2]; 0.57 lb ai/acre, 7 DAT): 100%; Percent Control ([2]; 0.57 lb ai/acre, 14 DAT): 100%; Percent Control ([2]; 0.57 lb ai/acre, 21 DAT): 100%; Percent Control (Kochia (Kochia scoparia); 0.25 lb ai/acre, 2 DAT): 10%; Percent Control (Kochia (Kochia scoparia); 0.25 lb ai/acre, 7 DAT): 70%; Percent Control (Kochia (Kochia scoparia); 0.25 lb ai/acre, 14 DAT): 95%; Percent Control (Kochia (Kochia scoparia); 0.25 lb ai/acre, 20 DAT): 99%; Percent Control ([3]; 0.25 lb ai/acre, 2 DAT): 80%; Percent Control ([3]; 0.25 lb ai/acre, 7 DAT): 95%; Percent Control ([3]; 0.25 lb ai/acre, 14 DAT): 99%; Percent Control ([3]; 0.25 lb ai/acre, 20 DAT): 90%

Q: How did the “Percent Control” value ([1]; 0.75 lb ai/acre, 7 DAT) turn out when `O=C(O)c1c(Cl)ccc2cc(Cl)cnc12` [B, 3,7-dichloro-8-quinolinecarboxylic acid] was run?
A: 75%

Q: What about the “Percent Control” value ([1]; 0.75 lb ai/acre, 14 DAT) of the same molecule?
A: 55%

Q: What about the “Percent Control” value ([1]; 0.75 lb ai/acre, 21 DAT) of the same molecule?
A: 78%

Q: What about the “Percent Control” value ([1]; 0.75 lb ai/acre, 28 DAT) of the same molecule?
A: 67%

Q: What about the “Percent Control” value ([1]; 0.75 lb ai/acre, 41 DAT) of the same molecule?
A: 57%

Q: And the “Percent Control” value ([2]; 0.75 lb ai/acre, 7 DAT)?
A: 83%

Q: What about the “Percent Control” value ([2]; 0.75 lb ai/acre, 14 DAT) of the same molecule?
A: 54%

Q: What about the “Percent Control” value ([2]; 0.75 lb ai/acre, 21 DAT) of the same molecule?
A: 37%

Q: What about the Percent Control (Kochia (Kochia scoparia); 0.25 lb ai/acre, 2 DAT) of the same molecule?
A: 0%

Q: And the Percent Control (Kochia (Kochia scoparia); 0.25 lb ai/acre, 7 DAT)?
A: 0%

Q: And the Percent Control (Kochia (Kochia scoparia); 0.25 lb ai/acre, 14 DAT)?
A: 5%

Q: And the Percent Control (Kochia (Kochia scoparia); 0.25 lb ai/acre, 20 DAT)?
A: 5%

Q: And the Percent Control (Kochia (Kochia scoparia); 0.5 lb ai/acre, 2 DAT)?
A: 0%

Q: What about the Percent Control (Kochia (Kochia scoparia); 0.5 lb ai/acre, 7 DAT) of the same molecule?
A: 0%

Q: And the Percent Control (Kochia (Kochia scoparia); 0.5 lb ai/acre, 14 DAT)?
A: 20%

Q: What about the Percent Control (Kochia (Kochia scoparia); 0.5 lb ai/acre, 20 DAT) of the same molecule?
A: 20%

Q: And the Percent Control (Kochia (Kochia scoparia); 0.75 lb ai/acre, 2 DAT)?
A: 0%

Q: And the Percent Control (Kochia (Kochia scoparia); 0.75 lb ai/acre, 7 DAT)?
A: 0%

Q: And the Percent Control (Kochia (Kochia scoparia); 0.75 lb ai/acre, 14 DAT)?
A: 10%

Q: And the Percent Control (Kochia (Kochia scoparia); 0.75 lb ai/acre, 20 DAT)?
A: 5%

Q: And the Percent Control (Kochia (Kochia scoparia); 1.0 lb ai/acre, 2 DAT)?
A: 0%

Q: What about the Percent Control (Kochia (Kochia scoparia); 1.0 lb ai/acre, 7 DAT) of the same molecule?
A: 0%

Q: And the Percent Control (Kochia (Kochia scoparia); 1.0 lb ai/acre, 14 DAT)?
A: 10%

Q: And the Percent Control (Kochia (Kochia scoparia); 1.0 lb ai/acre, 20 DAT)?
A: 20%

Q: And the Percent Control (Kochia (Kochia scoparia); 1.25 lb ai/acre, 2 DAT)?
A: 0%

Q: What about the Percent Control (Kochia (Kochia scoparia); 1.25 lb ai/acre, 7 DAT) of the same molecule?
A: 0%

Q: What about the Percent Control (Kochia (Kochia scoparia); 1.25 lb ai/acre, 14 DAT) of the same molecule?
A: 10%

Q: What about the Percent Control (Kochia (Kochia scoparia); 1.25 lb ai/acre, 20 DAT) of the same molecule?
A: 10%

Q: And the Percent Control ([3]; 0.25 lb ai/acre, 2 DAT)?
A: 10%

Q: And the Percent Control ([3]; 0.25 lb ai/acre, 7 DAT)?
A: 10%

Q: What about the Percent Control ([3]; 0.25 lb ai/acre, 14 DAT) of the same molecule?
A: 10%

Q: What about the Percent Control ([3]; 0.25 lb ai/acre, 20 DAT) of the same molecule?
A: 10%

Q: And the Percent Control ([3]; 0.5 lb ai/acre, 2 DAT)?
A: 0%

Q: What about the Percent Control ([3]; 0.5 lb ai/acre, 7 DAT) of the same molecule?
A: 0%

Q: What about the Percent Control ([3]; 0.5 lb ai/acre, 14 DAT) of the same molecule?
A: 0%

Q: And the Percent Control ([3]; 0.5 lb ai/acre, 20 DAT)?
A: 0%

Q: And the Percent Control ([3]; 0.75 lb ai/acre, 2 DAT)?
A: 0%

Q: What about the Percent Control ([3]; 0.75 lb ai/acre, 7 DAT) of the same molecule?
A: 0%

Q: And the Percent Control ([3]; 0.75 lb ai/acre, 14 DAT)?
A: 0%

Q: What about the Percent Control ([3]; 0.75 lb ai/acre, 20 DAT) of the same molecule?
A: 0%

Q: What about the Percent Control ([3]; 1.0 lb ai/acre, 2 DAT) of the same molecule?
A: 0%

Q: And the Percent Control ([3]; 1.0 lb ai/acre, 7 DAT)?
A: 0%

Q: And the Percent Control ([3]; 1.0 lb ai/acre, 14 DAT)?
A: 0%

Q: What about the Percent Control ([3]; 1.0 lb ai/acre, 20 DAT) of the same molecule?
A: 0%

Q: What about the Percent Control ([3]; 1.25 lb ai/acre, 2 DAT) of the same molecule?
A: 10%

Q: What about the Percent Control ([3]; 1.25 lb ai/acre, 7 DAT) of the same molecule?
A: 10%

Q: And the Percent Control ([3]; 1.25 lb ai/acre, 14 DAT)?
A: 10%

Q: And the Percent Control ([3]; 1.25 lb ai/acre, 20 DAT)?
A: 10%
